Assay results published in patent US10358409B2, “Low-toxicity olefinic ester compositions and methods of using the same” (Elevance Renewable Sciences, Inc., priority 2014, dated 2019).

System: leptocheirus plumolosus
Test: Aquatic toxicity, EPA Test No. 1644, percent survival after 10 days of exposure
Format: in vivo
Method: The aquatic toxicity of three cyclohexyl esters were tested against three comparative compounds. Aqueous samples of the following solvents were prepared at concentrations of 3200 mg/kg: xylene (Sample 2A); methyl 9-dodecenoate (Sample 2B); methyl esters of a mixture of C13-15 olefinic acids (Sample 2C); cyclohexyl 9-decenoate (Sample 2D); cyclohexyl 9-dodecenoate (Sample 2E); and cyclohexyl esters of a mixture of C13-15 olefinic acids. Using United States Environmental Protection Agency (EPA) Test No. 1644, the toxicity of the aqueous compositions was measured as the percent survival of leptocheirus plumolosus after 10 days of exposure. Table 1 recites the survival rates for each of the above compositions.

[1] = Leptocheirus plumolosus, in vivo, 3200 mg/kg, 10 days

| Molecule | Survival Rate (%) [1] | Survival Rate (%) (aqueous samples of the solvent at 3200 mg/kg, percent survival of leptocheirus plumolosus after 10 days of exposure) |
| --- | --- | --- |
| CCC=CCCCCCCCC(=O)OC1CCCCC1 [Sample 2E, cyclohexyl 9-dodecenoate] | 89% |  |
| xylene [Sample 2A] |  | 69% |
| C=CCCCCCCCC(=O)OC1CCCCC1 [Sample 2D, cyclohexyl 9-decenoate] | 57% |  |
| CCC=CCCCCCCCC(=O)OC [Sample 2B, methyl 9-dodecenoate] | 47% |  |
